# Data from patent publication US20230146239A1 (THE SCRIPPS RESEARCH INSTITUTE, priority 2020, published 2023).
# Where two headings read alike, the source gives them in different places.
# Key:
# [1] = tested on: VanA E. faecium (ATCC BAA-2317); assay: In vitro antimicrobial microdilution assay (MIC); assay type: cell-based, Enterococcus faecium
# Description: (§2) The lowest concentration of antibiotic (in μg/mL) capable of eliminating cell growth in the wells is the reported MIC value.
# [2] = mice, cited from earlier work; for terminal half-life (t1/2): earlier studies; for AUC / CL / Cmax / Vd / t1/2 / tmax: iv, earlier study
# [3] = tested on: VanA VRE E. faecalis BM 4166 and E. faecium ATCC BAA-2317; details: previously reported; C1-vancomycin even at 100 μM; cited from earlier work
# [4] = tested on: VanA E. faecalis BM 4166 or ATCC BAA-2573; assay: microbe, parasite or virus in culture; assay type: cell-based; details: Enterococcus faecalis, ATCCBAA2573, read-out: MIC, VanA E. faecalis
# Description: as §2
# [5] = mice, earlier studies; cited from earlier work
# [6] = Mouse pharmacokinetics, iv; details: 10 mg/kg
# Description: Plasma was obtained by centrifugation using a microcentrifuge fit with a hematocrit rotor, and obtained plasma was immediately frozen. The use of micro-sampling blood collection reduces the total blood taken from the mouse and allows a single mouse to be used for the entire time course, reducing inter-individual variability and maintaining the health of the mouse.
# Drug levels were determined by mass spectrometry using an ABSciex 5500 mass spectrometer using multiple reaction monitoring. […] All PK work was conducted in the Scripps Florida vivarium which is fully AAALAC accredited. Procedures were approved by the Scripps Florida IACUC, protocol number 15-022.
# VanA VRE, 4 strains = assay: Antimicrobial activity against VanA VRE panel (4 strains), summarised in text; assay type: cell-based, Enterococcus faecalis, Enterococcus faecium
# Description: as §2
# [7] = tested on: VanA E. faecalis (BM 4166); assay: In vitro antimicrobial microdilution assay (MIC); assay type: cell-based, Enterococcus faecalis
# Description: as §2
# [8] = tested on: VanA VRE E. faecalis (BM 4166); assay: Impact of added LTA, phosphate, POPE on antimicrobial activity (MIC); assay type: cell-based, Enterococcus faecalis; details: for decrease of antimicrobial activity by added LTA: 100 μg/mL LTA, both VanA VRE strains
# Description: (§1) When NaH2PO4 or POPE was used instead of LTA, 10% brain-heart infusion broth containing 0.002% Tween®-80 with 100 μg/mL NaH2PO4 or 100 μg/mL POPE was used as the culture medium used for serial dilution. When additional G3 (H2N^+(CH2)3NHC(NH2)═NH2^+.2TFA) or Mg^2+ was used, 10% brain-heart infusion broth containing 0.002% Tween®-80 with 100 μg/mL G3 or 100 μg/mL MgCl2 and 100 μg/mL lipoteichoic acid was used as the culture medium for serial dilution of study group, 10% brain-heart infusion broth containing 0.002% Tween®-80 with 100 μg/mL G3 was used as the culture medium for serial dilution of control group.
# [9] = tested on: MRSA S. aureus ATCC 43300; assay: microbe, parasite or virus in culture; assay type: cell-based, Staphylococcus aureus; details: for MIC: Staphylococcus aureus, read-out: MIC, MRSA S. aureus ATCC 43300
# Description: as §2
# [10] = tested on: VanA E. faecalis (ATCC BAA-2573); assay: In vitro antimicrobial microdilution assay (MIC); assay type: cell-based, Enterococcus faecalis
# Description: as §2
# [11] = tested on: VanA VRE E. faecium (ATCC BAA2317); assay: organism not typed; assay type: cell-based, Enterococcus faecium
# Description: as §1
# [12] = tested on: VanA VRSA strain VRS2 (S. aureus); details: mouse, in vivo; cited from earlier work
# [13] = tested on: VanB E. faecalis ATCC 51299; assay: microbe, parasite or virus in culture; assay type: cell-based, Enterococcus faecalis; details: for MIC: Enterococcus faecalis, ATCC51299, read-out: MIC, VanB E. faecalis ATCC 51299
# Description: as §2
# VanA E. faecium (TX2465) = assay: In vitro antimicrobial microdilution assay (MIC); assay type: cell-based, Enterococcus faecium
# Description: as §2
# [14] = tested on: VanA VRE E. faecalis BM 4166 and E. faecium ATCC BAA-2317; assay type: cell-based, Enterococcus faecalis, Enterococcus faecium; details: 10 μM added at 5 minutes
# Description: The above bacterial solution was subjected to a subculture to obtain fresh mid-log phase bacterial cells (incubation time=6 hours). The bacterial suspension was diluted to a total volume of 7 mL with OD600=0.6.
# After the cultured bacteria were harvested (3000 rpm, 4° C., 20 minutes), the white bacterial precipitate was washed and resuspended in 5 mM glucose and 5 mM HEPES buffer (1:1, 5.00 mL, pH=7.2).
# [15] = tested on: Sensitive S. aureus ATCC 25923; assay: In vitro antimicrobial microdilution assay (MIC); assay type: cell-based, Staphylococcus aureus
# Description: as §2
# [16] = tested on: VanA E. faecium (ATCC BAA-2317); details: earlier trimethylammonium cation modified analogues; cited from earlier work
# [17] = tested on: VanA E. faecalis (BM 4166); details: earlier trimethylammonium cation modified analogues; cited from earlier work
# [18] = Enterococcus faecium, ATCCBAA2317, read-out: MIC, VanA E. faecium ATCC BAA-2317
# [19] = 10 mg/kg, listed as C1-CBP-vancomycin (4)
smiles,measurement,setting,value
"CN[C@H](CC(C)C)C(=O)N[C@H]1C(=O)N[C@@H](CC(N)=O)C(=O)N[C@H]2C(=O)NC3C(=O)N[C@H](C(=O)N[C@H](C(=O)NCCC[N+](C)(C)C)c4cc(O)cc(O)c4-c4cc3ccc4O)[C@H](O)c3ccc(c(Cl)c3)Oc3cc2cc(c3OC2OC(CO)C(O)[C@H](O)[C@@H]2O[C@H]2CC(C)(NCc3ccc(-c4ccc(Cl)cc4)cc3)[C@H](O)[C@H](C)O2)Oc2ccc(cc2Cl)[C@H]1O (single isomer, unassigned) [Compound 4, C1-CBP-vancomycin]",MIC,[1]; [18],0.5 µg/mL
same,terminal half-life (t1/2),[2],300 min
same,AUC,[2]; [19],81100 ng·h/mL
same,CL,[2]; [19],2 mL/min/kg
same,Cmax,[2]; [19],14.1 µg/mL
same,Vd,[2]; [19],1.25 L/kg
same,t1/2,[2]; [19],420 min
same,tmax,[2]; [19],30 min
same,AUC,[2]; 50 mg/kg,430000 ng·h/mL
same,CL,[2]; 50 mg/kg,2 mL/min/kg
same,Cmax,[2]; 50 mg/kg,58.9 µg/mL
same,Vd,[2]; 50 mg/kg,1.04 L/kg
same,t1/2,[2]; 50 mg/kg,372 min
same,bacterial cell membrane permeabilization,[3],pronounced membrane permeabilization
same,MIC,[4],0.25 µg/mL
same,MTD,[5],50 mg/kg
same,AUC,"[6]; female, CD-1, mouse, in vivo",48400 ng·h/mL
same,Cmax,"[6]; female, CD-1, mouse, in vivo",14.5 µg/mL
same,Vd,"[6]; female, CD-1, mouse, in vivo",0.64 L/kg
same,clearance,"[6]; female, CD-1, mouse, in vivo",2 mL/min/kg
same,half-life,"[6]; female, CD-1, mouse, in vivo",306 min
same,tmax,"[6]; female, CD-1, mouse, in vivo",4.8 min
same,MRTlNF—obs,[6]; mice,336 min
same,Vd,"[6]; mice, this study",(0.64) L/kg
same,more potent than vancomycin,"VanA VRE, 4 strains",about 1000 fold
"CN[C@H](CC(C)C)C(=O)N[C@H]1C(=O)N[C@@H](CC(N)=O)C(=O)N[C@H]2C(=O)N[C@H]3C(=O)N[C@H](C(=O)N[C@H](C(=O)O)c4cc(O)cc(O)c4-c4cc3ccc4O)[C@H](O)c3ccc(c(Cl)c3)Oc3cc2cc(c3O[C@@H]2O[C@H](CO)[C@@H](O)[C@H](O)[C@H]2O[C@H]2C[C@](C)(N)[C@H](O)[C@H](C)O2)Oc2ccc(cc2Cl)[C@H]1O [Compound 1, vancomycin]",MIC,"[7]; Enterococcus faecalis, read-out: MIC, VanA E. faecalis BM 4166",250 µg/mL
same,MIC,[1]; [18],250 µg/mL
same,decrease of antimicrobial activity by added LTA,[8],no difference
same,MIC,"[8]; read-out: MIC, +LTA",250 µg/mL
same,MIC,"[8]; read-out: MIC, −LTA",250 µg/mL
same,terminal half-life (t1/2),[2],30 to 78 min
same,AUC,[2]; 10 mg/kg,21800 ng·h/mL
same,CL,[2]; 10 mg/kg,7.67 mL/min/kg
same,Cmax,[2]; 10 mg/kg,62.8 µg/mL
same,Vd,[2]; 10 mg/kg,0.34 L/kg
same,t1/2,[2]; 10 mg/kg,31.2 min
same,tmax,[2]; 10 mg/kg,4.98 min
same,AUC,[2]; 300 mg/kg,935000 ng·h/mL
same,CL,[2]; 300 mg/kg,5.33 mL/min/kg
same,Cmax,[2]; 300 mg/kg,1665 µg/mL
same,Vd,[2]; 300 mg/kg,0.62 L/kg
same,t1/2,[2]; 300 mg/kg,81 min
same,tmax,[2]; 300 mg/kg,4.98 min
same,MIC,[9],0.5 µg/mL
same,MIC,"[10]; Enterococcus faecalis, ATCCBAA2573, read-out: MIC, VanA E. faecalis ATCC BAA-2573",125 µg/mL
same,MIC,"[11]; read-out: MIC, +LTA",250 µg/mL
same,MIC,"[11]; read-out: MIC, −LTA",250 µg/mL
same,activity in the VRSA thigh infection model,[12],inactive
same,MIC,[4],250 µg/mL
same,MTD,[5],300 mg/kg
same,MIC,[13],8 µg/mL
same,MIC,VanA E. faecium (TX2465),250 µg/mL
same,MIC,"VanA E. faecium (TX2465); Enterococcus faecium, read-out: MIC, VanA E. faecium TX2465",250 µg/mL
same,bacterial cell membrane permeabilization,[14],no permeabilization
same,MIC,"[15]; Staphylococcus aureus, ATCC25923, read-out: MIC, Sensitive S. aureus ATCC 25923",0.5 µg/mL
"CN[C@H](CC(C)C)C(=O)N[C@H]1C(=O)N[C@@H](CC(N)=O)C(=O)N[C@H]2C(=O)NC3C(=O)N[C@H](C(=O)N[C@H](C(=O)NCCC[N+](C)(C)C)c4cc(O)cc(O)c4-c4cc3ccc4O)[C@H](O)c3ccc(c(Cl)c3)Oc3cc2cc(c3OC2OC(CO)C(O)[C@H](O)[C@@H]2O[C@H]2CC(C)(N)[C@H](O)[C@H](C)O2)Oc2ccc(cc2Cl)[C@H]1O (stereo partly shown) [Compound 3, C1-vancomycin]",MIC,[1]; [18],31 µg/mL
same,bacterial cell membrane permeabilization,[3],weaker
same,MIC,[4],63 µg/mL
same,"MIC, VanA E. faecium ATCC BAA-2317",[16],31 µg/mL
same,"MIC, VanA E. faecalis BM 4166",[17],63 µg/mL
"CN[C@H](CC(C)C)C(=O)N[C@H]1C(=O)N[C@@H](CC(N)=O)C(=O)N[C@H]2C(=O)NC3C(=O)N[C@H](C(=O)N[C@H](C(=O)NCc4ccc(NC(=N)N)cc4)c4cc(O)cc(O)c4-c4cc3ccc4O)[C@H](O)c3ccc(c(Cl)c3)Oc3cc2cc(c3OC2OC(CO)C(O)[C@H](O)[C@@H]2O[C@H]2CC(C)(N)[C@H](O)[C@H](C)O2)Oc2ccc(cc2Cl)[C@H]1O (stereo partly shown) [Compound 9, GBn-vancomycin]","MIC, VanA E. faecalis BM 4166",[7],16 µg/mL
same,"MIC, VanA E. faecium ATCC BAA-2317",[1],4 µg/mL
same,"MIC, +LTA","[8]; E. faecalis BM 4166, LTA 100 μg/mL",16 µg/mL
same,"MIC, −LTA","[8]; E. faecalis BM 4166, no LTA",16 µg/mL
same,"MIC, MRSA S. aureus ATCC 43300",[9],0.12 µg/mL
same,"MIC, VanA E. faecalis ATCC BAA-2573",[10],4 µg/mL
same,"MIC, +LTA","[11]; E. faecium ATCC BAA-2317, LTA 100 μg/mL",4 µg/mL
same,"MIC, −LTA","[11]; E. faecium ATCC BAA-2317, no LTA (0 μg/mL)",4 µg/mL
same,"MIC, VanB E. faecalis ATCC 51299",[13],8 µg/mL
same,"MIC, VanA E. faecium TX2465",VanA E. faecium (TX2465),8 µg/mL
same,"MIC, Sensitive S. aureus ATCC 25923",[15],0.25 µg/mL
"CN[C@H](CC(C)C)C(=O)N[C@H]1C(=O)N[C@@H](CC(N)=O)C(=O)N[C@H]2C(=O)N[C@H]3C(=O)N[C@H](C(=O)N[C@H](C(=O)NCc4ccc(NC(=N)N)cc4)c4cc(O)cc(O)c4-c4cc3ccc4O)[C@H](O)c3ccc(c(Cl)c3)Oc3cc2cc(c3OC2OC(CO)C(O)[C@H](O)C2O[C@H]2CC(C)(NCc3ccc(-c4ccc(Cl)cc4)cc3)[C@H](O)[C@H](C)O2)Oc2ccc(cc2Cl)[C@H]1O (stereo partly shown) [Compound 19, GBn-CBP-vancomycin]",decrease of antimicrobial activity by added LTA,[8],8 fold
same,MIC,"[8]; read-out: MIC, +LTA",5 µg/mL
same,MIC,"[8]; read-out: MIC, −LTA",0.6 µg/mL
same,MIC,[9],0.02 µg/mL
same,MIC,"[11]; read-out: MIC, +LTA",2.5 µg/mL
same,MIC,"[11]; read-out: MIC, −LTA",0.3 µg/mL
same,MIC,[13],0.04 µg/mL
same,bacterial cell membrane permeabilization,[14],strong membrane permeabilization
same,MIC,"[15]; Staphylococcus aureus, ATCC25923; read-out: MIC, Sensitive S. aureus ATCC 25923",0.04 µg/mL
"CN[C@H](CC(C)C)C(=O)N[C@H]1C(=O)N[C@@H](CC(N)=O)C(=O)N[C@H]2C(=O)N[C@H]3C(=O)N[C@H](C(=O)N[C@H](C(=O)O)c4cc(O)c(CN[C@@H](CCCNC(=N)N)C(=O)OC)c(O)c4-c4cc3ccc4O)[C@H](O)c3ccc(c(Cl)c3)Oc3cc2cc(c3OC2OC(CO)C(O)[C@H](O)C2O[C@H]2CC(C)(N)[C@H](O)[C@H](C)O2)Oc2ccc(cc2Cl)[C@H]1O (stereo partly shown) [Compound 27, Arg(OMe)^Ar-vancomycin]",MIC,"[7]; Enterococcus faecalis; read-out: MIC, VanA E. faecalis BM 4166",31 µg/mL
same,MIC,"[1]; Enterococcus faecium, ATCCBAA2317; read-out: MIC, VanA E. faecium ATCC BAA-2317",8 µg/mL
same,MIC,"[10]; Enterococcus faecalis, ATCCBAA2573; read-out: MIC, VanA E. faecalis ATCC BAA-2573",16 µg/mL
same,MIC,"VanA E. faecium (TX2465); Enterococcus faecium; read-out: MIC, VanA E. faecium TX2465",63 µg/mL
same,less potent compared with Arg(OMe)-vancomycin (Compound 10),"VanA VRE, 4 strains; resistant organisms",≤ 8 fold
